{"source": "ChEMBL document CHEMBL1817542", "about": "“Aromatic phosphonates inhibit the lysophospholipase D activity of autotaxin” (Bioorg Med Chem Lett, 2011)", "key": {"[1]": {"experiment": "Aqueous solubility of the compound", "type": "physicochemical", "details": "buffer"}, "Autotaxin [2]": {"biological_target": "T1, Autotaxin (Homo sapiens, UniProt Q13822)", "experiment": "Inhibition of human recombinant ATX lysophospholipase activity expressed in insect sf9 cells using FS-3 fluorogenic substrate preincubated for 10 mins measured after 5 and 25 mins by fluorometric analysis"}, "Autotaxin [3]": {"biological_target": "T1, Autotaxin", "experiment": "Inhibition of human recombinant ATX lysophospholipase activity expressed in insect sf9 cells using FS-3 fluorogenic substrate at 10 uM preincubated for 10 mins measured after 5 and 25 mins by fluorometric analysis"}}, "note": "Activity calls are given as the source filed them. The rule behind the calls is not given here."}
{"smiles": "CCCCCCCCCC(=O)Nc1ccc(C(O)P(=O)(O)O)cc1.NC1CCCCC1", "note": "(stereo not given)", "values": [{"measurement": "solubility", "setting": "[1]; read-out: solubility", "value": 4000, "unit": "µg/mL"}, {"measurement": "Ki", "setting": "Autotaxin [2]", "value": 24.2, "unit": "nM"}]}
{"smiles": "CCCCCCCCCCCCCC(=O)Nc1ccc(C(F)P(=O)(O)O)cc1.NC1CCCCC1", "note": "(stereo not given)", "values": [{"measurement": "Ki", "setting": "Autotaxin [2]", "value": 6.1, "unit": "nM"}]}
{"smiles": "CCCCCCCCCCCCCC(=O)Nc1ccc(C(O)P(=O)(O)O)cc1.NC1CCCCC1", "note": "(stereo not given)", "values": [{"measurement": "Ki", "setting": "Autotaxin [2]", "value": 24, "unit": "nM"}]}
{"smiles": "CCCCCCC(=O)Nc1ccc(CP(=O)(O)O)cc1.NC1CCCCC1", "values": [{"measurement": "Ki", "setting": "Autotaxin [2]", "value": 512, "unit": "nM"}]}
{"smiles": "CCCCCCCCCCCCCC(=O)Nc1ccc(CP(=O)(O)O)cc1.NC1CCCCC1", "values": [{"measurement": "solubility", "setting": "[1]; read-out: solubility", "value": 1000, "unit": "µg/mL"}, {"measurement": "Ki", "setting": "Autotaxin [2]", "value": 9, "unit": "nM"}]}
{"smiles": "COCCOCCOCCC(=O)Nc1ccc(CP(=O)(O)O)cc1.NC1CCCCC1", "values": [{"measurement": "inhibition", "setting": "Autotaxin [3]", "value": "inactive"}]}
{"smiles": "CCCCCCC(=O)Nc1ccc(C(O)P(=O)(O)O)cc1.NC1CCCCC1", "note": "(stereo not given)", "values": [{"measurement": "Ki", "setting": "Autotaxin [2]", "value": 1010, "unit": "nM"}]}
{"smiles": "CCOP(=O)(Cc1ccc(N)cc1)OCC", "values": [{"measurement": "solubility", "setting": "[1]", "value": "soluble"}, {"measurement": "inhibition", "setting": "Autotaxin [3]", "value": "inactive"}]}
{"smiles": "CCCCCCCCCC(=O)Nc1ccc(CP(=O)(O)O)cc1.NC1CCCCC1", "values": [{"measurement": "Ki", "setting": "Autotaxin [2]", "value": 18, "unit": "nM"}]}
{"smiles": "CCCCCCC(=O)Nc1ccc(C(F)P(=O)(O)O)cc1.NC1CCCCC1", "note": "(stereo not given)", "values": [{"measurement": "Ki", "setting": "Autotaxin [2]", "value": 834, "unit": "nM"}]}
{"smiles": "CCCCCCCCCC(=O)Nc1ccc(C(F)P(=O)(O)O)cc1.NC1CCCCC1", "note": "(stereo not given)", "values": [{"measurement": "Ki", "setting": "Autotaxin [2]", "value": 72, "unit": "nM"}]}
{"smiles": "CCCCCCCCCCCCCC(=O)Nc1ccc(C(Br)P(=O)(O)O)cc1.NC1CCCCC1", "note": "(stereo not given)", "values": [{"measurement": "Ki", "setting": "Autotaxin [2]", "value": 8.1, "unit": "nM"}]}
